Laboratory results taken from patent publication EP2095819A1, “N-benzyl imidazole derivatives and their use as aldosterone synthase inhibitors” (Maastricht University, priority 2008, dated 2009).

How the values were obtained:
human CYP11B2 = target: T1, human CYP11B2 (Homo sapiens, UniProt P19099); assay: Inhibitor potency for human CYP11B2 in V79 cells expressing the enzyme (HPLC steroid analysis); assay type: cell-based; settings: for Ratio: Ratio = IC50 CYP11B1/ IC50 CYP11B2 (selectivity); for IC50: V79 cells stably (over)expressing human CYP11B2, 1 hour with inhibitor, then 11-deoxycorticosterone 500 nM for three hours, read-out: IC50 11B2
T1 construct: expressed in transfected cells; host or cells: V79 Chinese hamster cells
T1 sequence (P19099 25-503): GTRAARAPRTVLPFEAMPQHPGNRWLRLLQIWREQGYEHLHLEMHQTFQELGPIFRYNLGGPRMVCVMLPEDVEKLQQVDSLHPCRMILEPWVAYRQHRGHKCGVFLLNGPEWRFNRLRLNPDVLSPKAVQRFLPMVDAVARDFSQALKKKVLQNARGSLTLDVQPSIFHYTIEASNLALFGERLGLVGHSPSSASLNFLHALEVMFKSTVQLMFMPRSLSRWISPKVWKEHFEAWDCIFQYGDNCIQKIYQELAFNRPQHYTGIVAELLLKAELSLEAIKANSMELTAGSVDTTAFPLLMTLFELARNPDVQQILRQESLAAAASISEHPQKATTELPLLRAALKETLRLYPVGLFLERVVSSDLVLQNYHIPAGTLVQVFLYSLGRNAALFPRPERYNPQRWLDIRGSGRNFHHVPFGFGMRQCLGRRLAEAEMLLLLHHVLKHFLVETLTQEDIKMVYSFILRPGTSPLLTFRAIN
Procedure: (§1) Inhibitor potencies for human CYP11B1 and CYP11B2 were determined in an in vitro assay using V79 cells in which human CYP11B1 or CYP11B2 are expressed.
The V79 cells stably (over)expressing human CYP11 B2 were developed in the laboratory of Prof. Rita Bernhardt, Institute of Biochemistry, Saarland University, Saarbrücken, Germany : • Denner K, Doehmer J,Bernhardt R. "Cloning of CYP11B1 and CYP11B2 from normal human adrenal and their functional expression in COS-7 and V79 Chinese hamster cells" Endocr Res 1995;21:443-8; • Bottner B, Denner K, Bernhardt R "Conferring aldosterone synthesis to human CYP11B1 by replacing key amino acid residues with CYP11B2 ones", Eur. J. Biochem. 1998; 252: 458-466; • Denner K, Vogel R, Schmalix W, Doehmer J, Bernhardt R.: "Cloning and stable expression of the human mitochondrial cytochrome P45011B1 cDNA in V79 Chinese hamster cells and their application for testing of potential inhibitors." Pharmacogenetics 1995; 5: 89-96; • Denner K, Bernhardt R. "Inhibition studies of steroid conversions mediated by human CYP11B1 and CYP11B2 expressed in cell cultures". In: Oxygen Homeostasis and Its Dynamics. Springer-Verlag, Tokyo, Berlin, Heidelberg, New York 1998, pp 231-236; • Ehmer PB, Bureik M, Bernhardt R, Muller U, Hartmann RW. "Development of a test system for inhibitors of human aldosterone synthase (CYP11B2): screening in fission yeast and evaluation of selectivity in V79 cells." J. Steroid Biochem Mol Biol. 2002; 81: 173-179.
(§2) Cells were cultured under standard conditions in DMEM/FK12 medium (Gibco, Gaitersburg, USA) supplemented with 10% foetal calf serum (Hyclone, Logan, USA), penicillin/streptomycin (100 U/ml and 100 µg/ml, respectively Gibco). Cell culturing and incubation experiments (see below) with the cells were performed at 37°C in a humid environment and 5%CO2 atmosphere.
(§3) Next, cells were incubated for 1 hour in serum free medium with cumulative inhibitor concentrations. […] After these incubation times, medium was collected for steroid analysis by HPLC. To extract the (produced) steroids from the medium, 1 ml aliquots of medium were mixed with 1 ml 1 M sodium-glycine buffer (pH 10.5) containing 500 nM methylprednisolone (Sigma-Aldrich) as internal standard and 5 ml of diethylether (Biosolve, Valkenswaard, the Netherlands). After shaking for 3 minutes, the samples were briefly centrifuged and the organic phase (containing the steroids) transferred into another tube and blown to dryness under a stream of nitrogen. The dried extracts were dissolved in 100 µl of mobile phase to be used for automated HPLC analysis. The HPLC system comprised a MR column (4.6 x 50 mm, particle size 2.5 µm; Shimadzu, Tokyo, Japan) as a stationary phase and a mixture of 680/320/1 (v/v/v) milliQ water, acetonitrile and trifluoro-acetic acid as mobile phase at a flow rate of 1.0 ml/minute. Steroids were detected by UV absorption at 243 nm (Shimadzu, Tokyo, Japan). To quantitate the steroids, peak area ratios versus the internal standard (methylprednisolone) were determined and compared with calibration curves.
(§4) Determination of IC50 values (potencies) was based on at least 5 inhibitor concentrations and was derived from the generic equation for enzyme inhibition at fixed substrate concentration vi = v0/(1 + I/IC50) with vi and v0 being the reaction velocities in the presence or absence of inhibitor respectively, and I being the inhibitor concentration (Cornish-Bowden A, "Analysis of enzyme kinetic data.", Oxford University Press, Oxford, 1995). All analyses were conducted at least in duplicate. […]

human CYP11B1 = target: T2, human CYP11B1 (Homo sapiens, UniProt P15538); assay: Inhibitor potency for human CYP11B1 in V79 cells expressing the enzyme (HPLC steroid analysis); assay type: cell-based; settings: V79 cells (over)expressing human CYP11B1; 1 hour with inhibitor, then 11-deoxycorticosterone 500 nM for another hour; read-out: IC50 11B1
T2 construct: The full length cDNA for human CYP11B1 was obtained by PCR from human adrenal cDNA; expressed in transfected cells; host or cells: V79 Chinese hamster cells, stably transfected with pcDNA3.1 (hygromycin resistance)
T2 sequence (P15538 25-503): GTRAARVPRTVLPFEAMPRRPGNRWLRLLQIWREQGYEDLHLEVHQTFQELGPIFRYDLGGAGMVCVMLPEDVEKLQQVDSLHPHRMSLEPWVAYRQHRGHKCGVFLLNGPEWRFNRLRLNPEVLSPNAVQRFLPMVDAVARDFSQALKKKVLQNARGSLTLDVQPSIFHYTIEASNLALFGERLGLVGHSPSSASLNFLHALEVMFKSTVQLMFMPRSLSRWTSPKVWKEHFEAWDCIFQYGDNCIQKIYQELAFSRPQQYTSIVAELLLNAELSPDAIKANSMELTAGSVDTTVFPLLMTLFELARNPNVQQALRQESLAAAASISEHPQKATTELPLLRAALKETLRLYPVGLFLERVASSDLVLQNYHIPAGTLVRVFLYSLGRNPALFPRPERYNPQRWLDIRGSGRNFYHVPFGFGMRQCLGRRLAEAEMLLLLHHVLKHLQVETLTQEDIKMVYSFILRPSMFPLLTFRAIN
Procedure: as §1
The human CYP11B1 (over)expressing V79 cells (stably transfected with a pcDNA3.1 vector, carrying a hygromycin resistance box) were constructed at Organon (Newhouse, UK) in the following manner. The full length cDNA for human CYP11B1 was obtained by PCR from human adrenal cDNA as described by Kawamoto et al ("Cloning of cDNA and genomic DNA for human cytochrome P-45011 beta" FEBS Lett 1990;269:345-9) and cloned into pPCR SCRIPT (Stratagene, La Jolla, USA). After digestion with Xho I and Not I, the obtained cDNA was inserted into a Xho I/Not I digested pcDNA3.1 vector (InVitrogen, Breda, Netherlands), carrying a hygromycin resistance box. Following transfection to the V79 cells, positive cells were selected based on their hygromycin resistance. The presence of the CYP11B1 gene was confirmed by PCR and the presence of 11β-hydroxylase activity (i.e. the ability to produce corticosterone or cortisol from 11-deoxycorticosterone or 11-deoxycortisol respectively). […] In normal (non transfected) V79 cells, no detectable 11β-hydroxylase activity or PCR signals were found.
as §2, §3, §4

Structure (SMILES)	Ratio (human CYP11B2)	IC50 (human CYP11B2) [µM]	IC50 (human CYP11B1) [µM]
COC(=O)CCc1cncn1Cc1ccc(C#N)cc1 [Compound 18, Methyl 3-[1-(4-cyanobenzyl)-1H-imidazol-5-yl]propanoate]	8.9	0.0035	0.0311
COC(=O)c1cncn1Cc1ccc(C#N)cc1 [Compound 45, Methyl 1-(4-cyanobenzyl)-1H-imidazole-5-carboxylate]	6.7	0.0071	0.0478
N#Cc1ccc(Cn2cncc2CO)cc1 [Compound 52, 1-(4-cyanobenzyl)-5-hydroxymethyl-1H-imidazole]	10	0.0285	0.285
Cc1ccccc1-c1cncn1Cc1ccc(C#N)cc1 [Compound 57, 4-[(5-(2-Methylphenyl)-1H-imidazol-1-yl)methyl]benzonitrile]	10.5	0.0007	0.0076
N#Cc1ccc(Cn2cncc2-c2cccc(F)c2)cc1 [Compound 58, 4-[(5-(3-Fluorophenyl)-1H-imidazol-1-yl)methyl]benzonitrile]	5.8	0.0055	0.0318

Second part, the molecule after the results:

Ratio (human CYP11B2)	IC50 (human CYP11B2) [µM]	IC50 (human CYP11B1) [µM]	Structure (SMILES)
6.9	0.0168	0.116	OCCCc1cncn1Cc1ccc(F)cc1 [Compound 15, 3-[1-(4-Fluorobenzyl)-1H-imidazol-5-yl]propanol]
14.4	0.004	0.0574	COC(=O)CCc1cncn1Cc1ccc(Br)cc1 [Compound 20, Methyl 3-[1-(4-bromobenzyl)-1H-imidazol-5-yl]propanoate]
11.4	0.0123	0.14	Cc1cncn1Cc1ccc(C#N)cc1 [Compound 42, 4-[(5-Methyl-1H-imidazol-1-yl)methyl]benzonitrile]
15.7	0.0017	0.0275	N#Cc1ccc(Cn2cncc2-c2ccccc2)cc1 [Compound 43, 4-[(5-Phenyl-1H-imidazol-1-yl)methyl]benzonitrile]
7.7	0.0618	0.478	N#Cc1ccc(Cn2cncc2C=O)cc1 [Compound 44, 4-[(5-Formyl-1H-imidazol-1-yl)methyl]benzonitrile]
5.9	0.0023	0.0137	O=[N+]([O-])c1ccc(Cn2cncc2-c2ccccc2)cc1 [Compound 50, 1-(4-Nitrobenzyl)-5-phenyl-1H-imidazole]
